In patent US20240180886A1, “INHIBITORS OF PROTEIN TYROSINE PHOSPHATASE, COMPOSITIONS, AND METHODS OF USE” (BRISTOL-MYERS SQUIBB COMPANY, priority 2022, published 2024):

How the values were obtained:
[1] = molecular target: T1, PTPN2 (Homo sapiens (Human), UniProt P17706); assay: PhosphoSens assay (PTPN2 BCHEM); format: biochemical; conditions: substrate AQT0264 20 μM, PTPN2 150 pM
Description: A PhosphoSens® kinase assay was performed as described by the vendor (AssayQuant Technologies, Marlborough, MA). Briefly, 1000× solutions of compounds were prepared in DMSO via serial dilution of the 10 mM DMSO stocks using 3-fold intervals in a 384-well reagent plate. 50 nL of the compound dilution series was then added to the corresponding wells of a 384-well assay plate. […] Finally, […] of 5× PTPN2 enzyme stock was added to each well of the assay plate for a final enzyme concentration of 150 pM. Reaction progress curves were collected by sampling fluorescence intensity at the excitation wavelength 360 nm (λex360) and emission wavelength 480 nm (λem480) every 71 seconds for one hour using a Synergy H4 plate reader (BioTek Instruments/Agilent Technologies, Winooski, VT) at room temperature.
Target sequence in this assay (P17706 whole entry): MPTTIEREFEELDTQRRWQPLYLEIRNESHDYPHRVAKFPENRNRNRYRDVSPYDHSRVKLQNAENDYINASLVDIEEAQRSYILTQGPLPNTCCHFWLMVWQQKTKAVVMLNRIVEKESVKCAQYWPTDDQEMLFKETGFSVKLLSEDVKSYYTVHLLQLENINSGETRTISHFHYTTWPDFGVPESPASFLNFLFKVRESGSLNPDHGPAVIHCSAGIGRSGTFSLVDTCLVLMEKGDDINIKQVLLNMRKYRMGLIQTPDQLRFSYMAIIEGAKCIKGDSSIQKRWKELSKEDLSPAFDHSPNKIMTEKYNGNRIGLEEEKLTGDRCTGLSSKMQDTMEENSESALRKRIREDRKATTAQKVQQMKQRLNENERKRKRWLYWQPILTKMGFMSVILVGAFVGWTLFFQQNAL

[2] = molecular target: T1, PTPN2; assay: Phosphatase activity assay using DiFMUP as substrate; format: biochemical; conditions: PTPN2 0.15 nM, 10 mM DTT
Description: The PTPN2 biochemical assay was performed as follows, a 5× stock solution of human PTPN2 (SRP5075, MilliporeSigma, Burlington, MA) and a 1.25× stock solution of DiFMUP (D6567, ThermoFisher Scientific, Waltham, MA), were prepared in 1× reaction buffer consisting of 50 mM HEPES, pH 7.4, 1 mM EDTA, 150 mM NaCl, 0.2 mg/mL BSA, 100 U/mL catalase and 10 mM DTT. […] of the DiFMUP substrate solution, for a final concentration of […] DiFMUP substrate, was added to a Corning 3574 384-well, white, non-binding surface microtiter plate containing […] of serially diluted test compounds prepared in DMSO. The reactions were started with the addition of […] of the enzyme solution, for a final PTPN2 concentration of 0.15 nM, and monitored every 105 seconds for 60 minutes at λEX 360/λEM 460 in a BioTek Synergy HTX plate reader (Agilent Technologies, Santa Clara, CA) at room temperature. The initial linear portions of the progress curves were fit according to a linear equation to yield the slopes and converted to % inhibition based on a value of 100% activity for the no inhibitor treated control. IC50 values of each compound were obtained by fitting the % inhibition-compound concentration curves using Dotmatics software (Dotmatics, Bishops Stortford, Hertfordshire, England),
Target sequence in this assay (P17706 other isoform, or with tags, fused parts or gaps isoform P17706-2): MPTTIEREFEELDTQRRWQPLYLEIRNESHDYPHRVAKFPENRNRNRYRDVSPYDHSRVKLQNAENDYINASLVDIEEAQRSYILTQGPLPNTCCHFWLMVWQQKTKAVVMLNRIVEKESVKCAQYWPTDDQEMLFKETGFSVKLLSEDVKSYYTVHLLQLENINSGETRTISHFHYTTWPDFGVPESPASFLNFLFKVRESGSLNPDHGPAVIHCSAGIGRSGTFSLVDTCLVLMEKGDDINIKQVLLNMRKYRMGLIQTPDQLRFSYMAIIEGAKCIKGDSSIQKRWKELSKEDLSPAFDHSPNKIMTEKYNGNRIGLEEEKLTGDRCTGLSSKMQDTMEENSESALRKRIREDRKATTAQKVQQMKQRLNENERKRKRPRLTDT

[3] = tested on: phosphorylated STAT1 in B16-F10 cells; assay: Phospho-STAT1 (Tyr701) HTRF assay in B16-F10 cells with IFN-gamma; format: cell-based; conditions: mouse IFN-gamma 100 ng/mL, 1 hour, read-out: pSTAT1 HTRF B16F10 EC50
Description: B16-F10 cells (ATCC, Manassas, VA, #CRL-6475) were cultured in DMEM growth medium (ThermoFisher Scientific, Waltham, MA, #11995-040) supplemented with 10% heat-inactivated FBS (ThermoFisher Scientific, #16140-071) and 1% pen/strep (ThermoFisher Scientific, #15140-122). The cells were seeded into a white opaque 384-well tissue culture treated microplate (PerkinElmer, Waltham, MA, #6007688) at a density of 10,000 cells/well in 20 uL total volume and incubated overnight at 37 C and 5% CO2. 30 nL of compounds dissolved in DMSO were then transferred from a source plate into target wells with the Echo650 acoustic liquid handler (Beckman Coulter, Indianapolis, IN). Negative control wells received 30 nL of DMSO only (0.15% final concentration). Plates were returned to the incubator for 1 hour and then cells were treated with either 5 uL of growth medium or 5 uL of growth medium containing 500 ng/mL of recombinant mouse IFN-gamma protein (R&D Systems, Minneapolis, MN, #485-MI/CF, 100 ng/mL final concentration) using the Assist automated pipetting platform (INTEGRA Biosciences, Hudson, NH). Plates were incubated at 37 C for 1 hour and assayed for phosphorylated STAT1 protein levels with the phospho-STAT1 (Tyr701) HTRF kit (Cisbio, Bedford, MA, #63ADK026PEH) according to the manufacturer's instructions.

[4] = tested on: B16-F10 cells; assay: Cell proliferation assay (CellTiter-Glo) in B16-F10 cells with IFN-gamma; format: cell-based; conditions: 120 h, mouse IFN-gamma 10 ng/mL, read-out: PTPN2 Prolif 5d B16F10 EC50

Compound	IC50 [1]	IC50 [2]	EC50 [3]	EC50 [4]
O=C1CN(c2c(O)cc(CN(c3ccc(C(F)(F)F)cn3)C3CC3)cc2F)S(=O)(=O)N1 [EXAMPLE 50, 5-(4-((cyclopropyl(5-(trifluoromethyl)pyridin-2-yl)amino)methyl)-2-fluoro-6-hydroxyphenyl)-1,2,5-thiadiazolidin-3-one 1,1-dioxide]	816 nM	3240 nM	> 15000 nM	> 15000 nM
COc1cccnc1NCc1cc(O)c(N2CC(=O)NS2(=O)=O)c(F)c1 [EXAMPLE 34, 5-[2-fluoro-6-hydroxy-4-[[(3-methoxy-2-pyridyl)amino]methyl]phenyl]-1,1-dioxo-1,2,5-thiadiazolidin-3-one]	> 10000 nM	10000 nM	> 15000 nM	> 15000 nM
CCc1cccnc1NCc1cc(O)c(N2CC(=O)NS2(=O)=O)c(F)c1 [EXAMPLE 23, 5-[4-[[(3-ethyl-2-pyridyl)amino]methyl]-2-fluoro-6-hydroxy-phenyl]-1,1-dioxo-1,2,5-thiadiazolidin-3-one]	30 nM	510 nM	1510 nM	14100 nM
O=C1CN(c2c(O)cc(CNc3ccccn3)cc2F)S(=O)(=O)N1 [EXAMPLE 37, 5-[2-fluoro-6-hydroxy-4-[(2-pyridylamino)methyl]phenyl]-1,1-dioxo-1,2,5-thiadiazolidin-3-one]	30 nM	70 nM	450 nM	1260 nM
O=C1CN(c2c(O)cc(CNc3cc(F)ccn3)cc2F)S(=O)(=O)N1 [EXAMPLE 16, 5-[2-fluoro-4-[[(4-fluoro-2-pyridyl)amino]methyl]-6-hydroxy-phenyl]-1,1-dioxo-1,2,5-thiadiazolidin-3-one]	20 nM	200 nM	1240 nM	1030 nM
Cc1ccc(C)c(NCc2cc(O)c(N3CC(=O)NS3(=O)=O)c(F)c2)n1 [EXAMPLE 20, 5-[4-[[(3,6-dimethyl-2-pyridyl)amino]methyl]-2-fluoro-6-hydroxy-phenyl]-1,1-dioxo-1,2,5-thiadiazolidin-3-one]	80 nM	190 nM	3600 nM	3950 nM
Cc1cnc(NCc2cc(O)c(N3CC(=O)NS3(=O)=O)c(F)c2)cc1F [EXAMPLE 33, 5-[2-fluoro-4-[[(4-fluoro-5-methyl-2-pyridyl)amino]methyl]-6-hydroxy-phenyl]-1,1-dioxo-1,2,5-thiadiazolidin-3-one]	20 nM	40 nM	510 nM	970 nM
Cc1cnc(NCc2cc(O)c(N3CC(=O)NS3(=O)=O)c(F)c2)cc1C [EXAMPLE 28, 5-[4-[[(4,5-dimethyl-2-pyridyl)amino]methyl]-2-fluoro-6-hydroxy-phenyl]-1,1-dioxo-1,2,5-thiadiazolidin-3-one]	1 nM	2 nM	130 nM	280 nM
COc1ccnc(NCc2cc(O)c(N3CC(=O)NS3(=O)=O)c(F)c2)c1 [EXAMPLE 12, 5-[2-fluoro-6-hydroxy-4-[[(4-methoxy-2-pyridyl)amino]methyl]phenyl]-1,1-dioxo-1,2,5-thiadiazolidin-3-one]	10 nM	10 nM	90 nM	140 nM
COc1cc(NCc2cc(O)c(N3CC(=O)NS3(=O)=O)c(F)c2)ncc1C [EXAMPLE 9, 5-[2-fluoro-6-hydroxy-4-[[(4-methoxy-5-methyl-2-pyridyl)amino]methyl]phenyl]-1,1-dioxo-1,2,5-thiadiazolidin-3-one]	4 nM	4 nM	70 nM	120 nM
Cc1cc(NCc2cc(O)c(N3CC(=O)NS3(=O)=O)c(F)c2)ncc1C#N [EXAMPLE 32, 6-[[3-fluoro-5-hydroxy-4-(1,1,4-trioxo-1,2,5-thiadiazolidin-2-yl)phenyl]methylamino]-4-methyl-pyridine-3-carbonitrile]	30 nM	50 nM	2340 nM	4550 nM
COc1ccc(NCc2cc(O)c(N3CC(=O)NS3(=O)=O)c(F)c2)nc1OC [EXAMPLE 36, 5-[4-[[(5,6-dimethoxy-2-pyridyl)amino]methyl]-2-fluoro-6-hydroxy-phenyl]-1,1-dioxo-1,2,5-thiadiazolidin-3-one]	20 nM	10 nM	640 nM	2180 nM
O=C1CN(c2c(O)cc(CNc3ccc(OCc4ccccc4)cn3)cc2F)S(=O)(=O)N1 [EXAMPLE 47, 5-[4-[[(5-benzyloxy-2-pyridyl)amino]methyl]-2-fluoro-6-hydroxy-phenyl]-1,1-dioxo-1,2,5-thiadiazolidin-3-one]	40 nM	1460 nM	6360 nM	13300 nM
O=C1CN(c2c(O)cc(CNc3ccc(C4CC4)cn3)cc2F)S(=O)(=O)N1 [EXAMPLE 10, 5-[4-[[(5-cyclopropyl-2-pyridyl)amino]methyl]-2-fluoro-6-hydroxy-phenyl]-1,1-dioxo-1,2,5-thiadiazolidin-3-one]	3 nM	40 nM	570 nM	610 nM
COc1cccc(NCc2cc(O)c(N3CC(=O)NS3(=O)=O)c(F)c2)n1 [EXAMPLE 35, 5-[2-fluoro-6-hydroxy-4-[[(6-methoxy-2-pyridyl)amino]methyl]phenyl]-1,1-dioxo-1,2,5-thiadiazolidin-3-one]	80 nM	20 nM	11600 nM	8660 nM
CCc1ccnc(NCc2cc(O)c(N3CC(=O)NS3(=O)=O)c(F)c2)c1 [EXAMPLE 13, 5-[4-[[(4-ethyl-2-pyridyl)amino]methyl]-2-fluoro-6-hydroxy-phenyl]-1,1-dioxo-1,2,5-thiadiazolidin-3-one]	2 nM	6 nM	260 nM	230 nM
COc1ccc(C)nc1NCc1cc(O)c(N2CC(=O)NS2(=O)=O)c(F)c1 [EXAMPLE 22, 5-[2-fluoro-6-hydroxy-4-[[(3-methoxy-6-methyl-2-pyridyl)amino]methyl]phenyl]-1,1-dioxo-1,2,5-thiadiazolidin-3-one]	80 nM	170 nM	2970 nM	2470 nM
COc1ccc(NCc2cc(O)c(N3CC(=O)NS3(=O)=O)c(F)c2)nc1 [EXAMPLE 38, 5-[2-fluoro-6-hydroxy-4-[[(5-methoxy-2-pyridyl)amino]methyl]phenyl]-1,1-dioxo-1,2,5-thiadiazolidin-3-one]	10 nM	60 nM	540 nM	850 nM
O=C1CN(c2c(O)cc(CNc3cc(OCc4ccccc4)ccn3)cc2F)S(=O)(=O)N1 [EXAMPLE 46, 5-[4-[[(4-benzyloxy-2-pyridyl)amino]methyl]-2-fluoro-6-hydroxy-phenyl]-1,1-dioxo-1,2,5-thiadiazolidin-3-one]	6 nM	10 nM	4100 nM	3510 nM
Cc1ccnc(NCc2cc(O)c(N3CC(=O)NS3(=O)=O)c(F)c2)c1 [EXAMPLE 7, 5-[2-fluoro-6-hydroxy-4-[[(4-methyl-2-pyridyl)amino]methyl]phenyl]-1,1-dioxo-1,2,5-thiadiazolidin-3-one]	5 nM	3 nM	180 nM	170 nM
